Measurements as given in patent US20090123565A9, “Copper-dependent non-traditional pro-inflammatory cytokine export and methods, compositions and kits relating thereto” (Maine Medical Center Research Institute, priority 2001, published 2009).

Legend:
[1] = test system: balloon-injured rat carotid artery; assay: S100A13, IL1, p40, PS expression in balloon-injured vessel wall (immunohistochemistry); type: in vivo, Sprague-Dawley rats
Protocol: In order to address the mechanisms underlying the effect of copper chelation on neointima formation, TTM was administered for 2 weeks before the balloon injury and daily after that until the animals were euthanized at the 4th and 7th day after the procedure. Accordingly, TTM-free animals euthanized 4 and 7 days after the injury were used as controls.
To evaluate S100A13, FGF1, p40 and IL-1α expression in balloon-injured arteries, paraffin-embedded specimens from the 4th, 7th and 14th day after the injury were cut into 5-μm cross sections, and mounted on glass slides. These sections were incubated in 10% hydrogen peroxide for 90 minutes to block endogenous peroxidase activity. Nonspecific binding was prevented by preincubating the sections with 5% bovine serum albumin (BSA; Sigma) in PBS. The sections were sequentially incubated with polyclonal rabbit anti-S100A13 antibody at a concentration of 1:200; polyclonal rabbit anti-FGF1 antibody at a concentration of 1:500; monoclonal mouse anti-p40 antibody at a concentration of 1:100; polyclonal rabbit anti-IL-1a antibody at a concentration of 1:50; phosphatidylserine (PS) antibody. After they were washed with PBS, the sections were incubated with anti-rabbit and anti-mouse IgG-conjugated horseradish peroxidase (Biorad) for an additional 30 minutes at room temperature. Each incubation was followed by a wash in PBS. Staining was visualized using the chromogen 0.06% 3,3′-diaminobenzidine/5% hydrogen peroxide in 0.05 mol/L Tris-HCl (pH 7.6). Control sections were incubated with nonimmune rabbit IgG at a concentration of 1:200.

[2] = test system: IL1α release from NIH 3T3 cell transfectants; assay: Heat shock-induced release of IL1α from NIH 3T3 cell transfectants (immunoblot of conditioned media); type: cell-based, human
Protocol: FIG. 5, comprising FIGS. 5A and 5B, depict the involvement of Cu^2+ in IL1α release. FIG. 5A is an image depicting results obtained using NIH 3T3 cells stably transfected with mIL1α-βGal. The cells were incubated for 18 hours at 37 C in the absence and presence of the Cu^2+ chelator, tetrathiomolybdate (TTM) as indicated and the untreated and treated cells either maintained at 37 C or subjected to heat shock as described in FIG. 3. The conditioned medium was evaluated for IL1α-βGal release by IL1α immunoblot analysis, and cell lysates from TTM-treated cells were used to monitor the intracellular level of IL1α-βGal expression. […] FIG. 5B is an image depicting release of IL1α-βGal in myc-S100A13 and IL1α-βGal NIH 3T3 cell cotransfectants and in insert-less vector and mIL1α-βGal NIH 3T3 cell transfectants in the presence and absence actinomycin D (10 μg/ml), as indicated, in response to heat shock. Conditioned media were processed and evaluated for IL1α-βGal immunoblot analysis as described in Tarantini et al. (2001).
Stable NIH 3T3 cell transfectants were generated accordingly with the following cDNA constructs cloned into pMEXneo (Tarantini, et al. 2001; Tarantini, et al. 1995; Tarantini, et al. 1998; LaVallee, et al. 1998; Carreira, et al. 1998; Landriscina, et al., 2001): human S100A13 with an amino-terminal fusion to a 6 Myc Tag (Myc-S100A13) (Landriscina, et al., 2001); human Myc-S100A13ΔBR (Landriscina, et al., 2001); human mIL1α (residues 113-271); human mIL1α with a carboxy-terminal fusion to a βGalactosidase tag (mIL1α-βGal) (Tarantini, et al. 2001); and pIL1α (residues 1-271) with a carboxy-terminal fusion to βGalactosidase (pIL1α-βGal) (Tarantini, et al. 2001). Recombinant human mIL1α was provided by Hoffmann-LaRoche. Recombinant human S100A13, as well as S100A13ΔBR, a S100A13 construct with the basic residue rich domain (residues 88 to 98) deleted, were generated as previously described (Landriscina, et al., 2001).
NIH 3T3 cell transfectants were grown to 70-80% confluency and prior to temperature stress, the cells were washed with serum-free DMEM. The heat shock was performed as previously described (Tarantini et al., 1995) in serum-free DMEM for 110 min at 42° C. Control cultures were incubated at 37° C. in serum-free DMEM. […] Immunoprecipitated and eluted proteins were resolved by 8% and 12% acrylamide SDS-PAGE, respectively, and evaluated by either IL1α (Tarantini, et al. 2001) or Myc (Landriscina, et al., 2001) immunoblot analysis. […] The effects of actinomycin D (Sigma Chemical Co., St. Louis, Mo.), cyclohexamide (Sigma) and tetrathiomolybdate (Sigma-Aldrich) on IL1α release were evaluated as previously reported (LaVallee et al., 1998).

[NH4+].[NH4+].[SH-].[SH-].[S]=[Mo]=[S] [TTM, ammonium tetrathiomolybdate]
S100A13, IL1 and PS staining in the neointima ([1]; 4 and 7 days after injury): no positive staining was detected
IL1 positive staining ([1]; 7 and 14 days after the balloon injury): almost complete inhibition
presence of S100A13 compared to the controls ([1]; 7 and 14 days after the injury): significantly decreased
S100A13, IL1 and PS staining in the neointima ([1]; 14 days after the injury): only a few cells were positively stained
phosphatidylserine flipping ([1]; balloon-injured arteries, controls did show it): did not show phosphatidylserine flipping
concentration at which TTM inhibited release of IL1α in response to heat shock ([2]; NIH 3T3 cells stably transfected with mIL1α-βGal, incubated 18 hours at 37 C with TTM, then heat shock, IL1α immunoblot (FIG. 5A)): 250 nM
repression of release of IL1α-βGal in response to temperature stress ([2]; TTM introduced into the Myc-S100A13 and IL1α-βGal cotransfectant system with actinomycin D): able to repress
